From ChEMBL document CHEMBL1777734, “Molecular hybridization of 4-azahexacyclo[5.4.1.0(2,6).0(3,10).0(5,9).0(8,11)]dodecane-3-ol with sigma (σ) receptor ligands modulates off-target activity and subtype selectivity” (Bioorg Med Chem Lett, 2011)

Tests used:
[1] = Displacement of [3H]DTG from sigma 2 receptor in rat brain homogenate; format: tissue-based
[2] = biological target: Sigma non-opioid intracellular receptor 1 (Rattus norvegicus, UniProt Q9R0C9); assay: Displacement of [3H](+)-pentazocine from sigma 1 receptor in rat brain homogenate; format: tissue-based
Sigma non-opioid intracellular receptor 1, sequence (Q9R0C9 whole entry): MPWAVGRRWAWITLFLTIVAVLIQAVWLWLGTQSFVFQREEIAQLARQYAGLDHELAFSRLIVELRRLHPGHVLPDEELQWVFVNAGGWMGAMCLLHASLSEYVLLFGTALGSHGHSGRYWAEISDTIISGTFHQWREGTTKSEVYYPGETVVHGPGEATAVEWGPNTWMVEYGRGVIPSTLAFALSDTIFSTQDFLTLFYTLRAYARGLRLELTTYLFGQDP

D(4) dopamine receptor = biological target: T1, D(4) dopamine receptor (Homo sapiens, UniProt P21917); assay: Displacement of [3H]N-methylspiperone from human D4 receptor expressed in HEK cells; format: cell-based, HEK293
T1 sequence (P21917 whole entry): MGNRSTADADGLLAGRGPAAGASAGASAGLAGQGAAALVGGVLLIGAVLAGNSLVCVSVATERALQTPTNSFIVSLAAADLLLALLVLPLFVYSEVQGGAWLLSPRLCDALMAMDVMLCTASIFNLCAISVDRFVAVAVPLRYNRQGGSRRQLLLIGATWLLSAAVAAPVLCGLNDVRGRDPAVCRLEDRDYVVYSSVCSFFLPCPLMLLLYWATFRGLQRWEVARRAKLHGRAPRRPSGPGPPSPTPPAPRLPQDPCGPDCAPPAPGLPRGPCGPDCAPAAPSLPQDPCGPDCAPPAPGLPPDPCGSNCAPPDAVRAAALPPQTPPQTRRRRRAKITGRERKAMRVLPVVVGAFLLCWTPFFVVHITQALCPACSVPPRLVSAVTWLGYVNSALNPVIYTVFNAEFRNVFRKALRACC

D(1B) dopamine receptor = D(1B) dopamine receptor (Homo sapiens, UniProt P21918); assay: Displacement of [3H][…] from human D5 receptor expressed in HEK cells; format: cell-based, HEK293
D(1B) dopamine receptor, sequence (P21918 whole entry): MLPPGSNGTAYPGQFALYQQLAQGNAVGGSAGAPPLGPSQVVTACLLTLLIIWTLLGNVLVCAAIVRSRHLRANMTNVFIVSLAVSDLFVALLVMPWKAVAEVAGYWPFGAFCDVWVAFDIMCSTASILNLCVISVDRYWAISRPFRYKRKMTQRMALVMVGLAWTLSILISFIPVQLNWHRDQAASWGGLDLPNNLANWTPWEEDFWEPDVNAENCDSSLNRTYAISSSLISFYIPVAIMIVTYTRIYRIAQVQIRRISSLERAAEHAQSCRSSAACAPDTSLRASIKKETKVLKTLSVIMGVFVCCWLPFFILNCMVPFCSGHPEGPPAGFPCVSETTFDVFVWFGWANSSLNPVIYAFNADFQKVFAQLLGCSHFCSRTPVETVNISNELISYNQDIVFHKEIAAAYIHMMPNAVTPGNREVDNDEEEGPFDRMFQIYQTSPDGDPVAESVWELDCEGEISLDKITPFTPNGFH

D(3) dopamine receptor [3] = biological target: T2, D(3) dopamine receptor (Homo sapiens, UniProt P35462); assay: Displacement of [3H]N-methylspiperone from human D3 receptor expressed in HEK cells; format: cell-based, HEK293
T2 sequence (P35462 whole entry): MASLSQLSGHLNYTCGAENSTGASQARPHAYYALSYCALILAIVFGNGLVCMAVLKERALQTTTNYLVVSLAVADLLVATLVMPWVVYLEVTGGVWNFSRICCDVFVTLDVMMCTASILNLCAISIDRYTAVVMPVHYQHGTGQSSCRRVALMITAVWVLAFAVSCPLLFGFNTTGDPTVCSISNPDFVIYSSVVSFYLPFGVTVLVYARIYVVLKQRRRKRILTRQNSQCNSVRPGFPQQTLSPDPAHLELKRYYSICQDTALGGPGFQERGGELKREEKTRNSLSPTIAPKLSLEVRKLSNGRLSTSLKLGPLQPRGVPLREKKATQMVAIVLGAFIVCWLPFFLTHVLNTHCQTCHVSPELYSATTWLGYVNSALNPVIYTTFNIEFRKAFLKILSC

D(2) dopamine receptor [4] = biological target: T3, D(2) dopamine receptor (Homo sapiens, UniProt P14416); assay: Displacement of [3H]N-methylspiperone from human D2 receptor expressed in HEK cells; format: cell-based, HEK293
T3 sequence (P14416 whole entry): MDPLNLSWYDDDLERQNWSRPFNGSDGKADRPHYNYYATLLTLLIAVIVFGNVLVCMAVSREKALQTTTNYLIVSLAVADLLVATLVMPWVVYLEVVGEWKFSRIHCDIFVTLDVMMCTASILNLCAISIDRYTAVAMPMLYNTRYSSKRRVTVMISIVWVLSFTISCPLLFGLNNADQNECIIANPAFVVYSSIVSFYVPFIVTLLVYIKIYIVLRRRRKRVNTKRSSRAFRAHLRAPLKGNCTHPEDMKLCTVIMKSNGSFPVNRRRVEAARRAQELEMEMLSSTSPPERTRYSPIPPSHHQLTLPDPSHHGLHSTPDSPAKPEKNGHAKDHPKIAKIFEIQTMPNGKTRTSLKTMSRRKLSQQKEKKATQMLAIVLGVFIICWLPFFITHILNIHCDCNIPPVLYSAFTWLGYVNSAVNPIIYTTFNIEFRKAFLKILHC

D(1A) dopamine receptor = D(1A) dopamine receptor (Homo sapiens, UniProt P21728); assay: Displacement of [3H][…] from human D1 receptor expressed in HEK cells; format: cell-based, HEK293
D(1A) dopamine receptor, sequence (P21728 whole entry): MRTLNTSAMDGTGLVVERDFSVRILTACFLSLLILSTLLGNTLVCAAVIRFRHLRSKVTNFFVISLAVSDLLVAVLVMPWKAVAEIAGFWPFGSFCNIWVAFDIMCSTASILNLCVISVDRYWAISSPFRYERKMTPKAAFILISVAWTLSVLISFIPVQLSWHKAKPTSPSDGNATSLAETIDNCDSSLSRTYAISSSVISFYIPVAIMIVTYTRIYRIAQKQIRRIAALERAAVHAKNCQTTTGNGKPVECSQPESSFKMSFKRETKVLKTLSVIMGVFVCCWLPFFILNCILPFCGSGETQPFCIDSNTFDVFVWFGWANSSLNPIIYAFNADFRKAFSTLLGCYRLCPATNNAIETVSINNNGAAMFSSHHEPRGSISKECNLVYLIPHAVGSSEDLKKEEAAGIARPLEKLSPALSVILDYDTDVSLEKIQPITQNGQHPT

D(3) dopamine receptor [5] = biological target: T2, D(3) dopamine receptor; assay: Displacement of [3H]N-methylspiperone from human D3 receptor expressed in HEK cells at 10 uM; format: cell-based; conditions: HEK293
D(2) dopamine receptor [6] = biological target: T3, D(2) dopamine receptor; assay: Displacement of [3H]N-methylspiperone from human D2 receptor expressed in HEK cells at 10 uM; format: cell-based; conditions: HEK293
Rattus norvegicus = species on record: Rattus norvegicus; assay: Ratio of Ki for rat sigma 2 receptor to Ki for rat sigma 1 receptor

| SMILES | Ki [1] | Ki [2] | Ki (D(3) dopamine receptor [3]) | Ki (D(2) dopamine receptor [4]) | Ki (D(1A) dopamine receptor) | Activity (D(2) dopamine receptor [6]) | Ratio Ki (Rattus norvegicus) | further results |
| --- | --- | --- | --- | --- | --- | --- | --- | --- |
| O=C(CCCN1CCC(O)(c2ccc(Cl)cc2)CC1)c1ccc(F)cc1 [HALOPERIDOL] | 7.93 nM |  |  |  |  |  |  |  |
| COc1cc2c(cc1OC)CN(CCNC(=O)c1cc(C)ccc1OC)CC2 | 13.3 nM |  |  |  |  |  |  |  |
| O=C(CCCN1C2C3C4CC5C6C4C2C6C1(O)C53)c1ccc(F)cc1 (stereo not given) | 55 nM | 27 nM | 1960 nM | 1720 nM | 209 nM |  |  | Ki (D(4) dopamine receptor): 93 nM; Ki (D(1B) dopamine receptor): > 10000 nM |
| CCCN(CCC)CCc1ccc(OC)c(OCCc2ccccc2)c1 | 212 nM |  |  |  |  |  |  | IC50 (D(2) dopamine receptor [4]): > 10000 nM; IC50 (D(1A) dopamine receptor): > 10000 nM |
| COc1ccc(C)cc1C(=O)NCCN1C2C3C4CC5C6C4C2C6C1(O)C53 (stereo not given) | 225 nM | 7.6 nM | > 10000 nM | > 10000 nM |  | < 50% | 30 | Activity (D(3) dopamine receptor [5]): < 50% |
| COc1ccc(CCN2C3C4C5CC6C7C5C3C7C2(O)C64)cc1OCCc1ccccc1 (stereo not given) | 93 nM | 20 nM |  | > 10000 nM | > 10000 nM | < 50% | 4.7 |  |
